# Data published in patent US10829464B2, “Benzoheterocyclic alkylamine compounds and use thereof” (priority 2016, dated 2020).
# Like-named read-outs stand apart in the source and are kept apart here.
# Key:
# [1] = rat, in vivo, 1000 mg/kg
# Excerpt: Thirty rats weighing 180-220 g, half male and half female, were picked out and randomly divided into three groups.
# in vitro = settings: mouse, microsomes
# CYP enzyme subtype 2D6 = CYP enzyme subtype 2D6 (Homo sapiens, UniProt P10635); experiment: Inhibition assay on hepatic CYP450 enzyme; format: in vitro ADME; settings: CYP 2D6; read-out: Half inhibitory concentration (IC50)
# [2] = system: wild-type S. aureus Newman strain; experiment: Verification assay using CrtN as a target (HPLC of carotenoid extract); format: cell-based, Staphylococcus aureus; settings: 100 μM added to wild-type strain Newman, 440 nm
# CYP enzyme subtype 1A2 = CYP enzyme subtype 1A2 (Homo sapiens, UniProt P05177); experiment: Inhibition assay on hepatic CYP450 enzyme; format: in vitro ADME; settings: CYP 1A2; read-out: Half inhibitory concentration (IC50)
# S. aureus = experiment: Human whole blood killing assay; format: cell-based, Staphylococcus aureus; settings: four strains, fresh human blood, 6 h
# Excerpt: Compound IA-25 was used as a representative compound. The main object of the invention was to impair the ability of bacteria to resist immunological killing in vivo by inhibiting staphyloxanthins synthesis.
# The calculated survival rate of bacteria after blood killing=(count of bacteria grown in sample after blood killing×dilution factor)/(count of bacteria grown in control group×dilution factor)×100%.
# Tinea barbae = experiment: In vitro antifungal assay (micro liquid-based dilution); format: cell-based; settings: read-out: Antifungal Activities, MIC80
# LRSA202 (CHN) = experiment: IC50 of inhibition of staphyloxanthin synthesis in MRSA strain; format: cell-based; settings: Staphylococcus aureus, read-out: Inhibitory activity on staphyloxanthin IC50
# Description: (§1) Selection of compound concentrations: based on the preliminary screening results, the ability of each compound to inhibit staphyloxanthin synthesis was determined. […] According to the assay results, 10 different concentration gradients were designed for each compound, such that the ability to inhibit staphyloxanthin synthesis comprised substantially from 0% to 100%.
# (§2) Culture of the strains: single colonies of strain Newman and crtN mutant strain were picked from TSA plates, added into test tubes containing 4 mL of sterile TSB medium, and cultured at 37° C. and 250 rpm for 12 h for later use.
# (§3) The relative level of staphyloxanthin synthesis at each concentration of the compound of the invention=A450 (sample)/A450 (negative control)*100%. With the molar concentration of the compound as the abscissa and the relative level of staphyloxanthin synthesis as the ordinate, a curve fitting of inhibitor concentration-inhibition rate (log(inhibitor) vs response) was performed in Graphpad prism 5.0 software, and the IC50 of the compound for inhibiting staphyloxanthin synthesis was calculated by software based on the fitting results.
# (§4) Compound IA-25 was used as a representative compound. In addition to replacement of S aureus strain Newman with other MRSA strains as described in Table 3, the rest of the method is the same as in Examples 61-62.
# HS663 (CHN) = experiment: as above; format: cell-based; settings: Staphylococcus aureus, read-out: Inhibitory activity on staphyloxanthin IC50
# Description: as §1, §2, §3, §4
# NRS70 (JPN) = experiment: as above; format: cell-based; settings: Staphylococcus aureus, NRS70, read-out: Inhibitory activity on staphyloxanthin IC50
# Description: as §1, §2, §3, §4
# NRS100 (USA) = experiment: as above; format: cell-based; settings: Staphylococcus aureus, NRS100, read-out: Inhibitory activity on staphyloxanthin IC50
# Description: as §1, §2, §3, §4
# LRSA56 (CHN) = experiment: as above; format: cell-based; settings: Staphylococcus aureus, read-out: Inhibitory activity on staphyloxanthin IC50
# Description: as §1, §2, §3, §4
# NRS108 (FRA) = experiment: as above; format: cell-based; settings: Staphylococcus aureus, NRS108, read-out: Inhibitory activity on staphyloxanthin IC50
# Description: as §1, §2, §3, §4
# LRSA205 (CHN) = experiment: as above; format: cell-based; settings: Staphylococcus aureus, read-out: Inhibitory activity on staphyloxanthin IC50
# Description: as §1, §2, §3, §4
# NRS271 (SPA) = experiment: as above; format: cell-based; settings: Staphylococcus aureus, NRS271, read-out: Inhibitory activity on staphyloxanthin IC50
# Description: as §1, §2, §3, §4
# NF65Y (CHN) = experiment: as above; format: cell-based; settings: Staphylococcus aureus, read-out: Inhibitory activity on staphyloxanthin IC50
# Description: as §1, §2, §3, §4
# XN108 (CHN) = experiment: as above; format: cell-based; settings: Staphylococcus aureus, read-out: Inhibitory activity on staphyloxanthin IC50
# Description: as §1, §2, §3, §4
# CYP enzyme subtype 2C19 = CYP enzyme subtype 2C19 (Homo sapiens, UniProt P33261); experiment: Inhibition assay on hepatic CYP450 enzyme; format: in vitro ADME; settings: CYP 2C19; read-out: Half inhibitory concentration (IC50)
# USA300 LAC = experiment: IC50 of inhibition of staphyloxanthin synthesis in drug-resistant strain; format: cell-based; settings: Staphylococcus aureus
# Description: as §1, §2, §3
# (§5) In addition to replacement of S. aureus strain Newman with USA 400 MW 2, USA 300 LAC and Mu 50, the rest of the method is the same as in Examples 58-59.
# as §4
# Mu50 = experiment: as above; format: cell-based; settings: Staphylococcus aureus
# Description: as §1, §2, §3, §5, §4
# USA400 MW2 = experiment: as above; format: cell-based; settings: Staphylococcus aureus
# Description: as §1, §2, §3, §5, §4
# Microsporum gypseum = experiment: In vitro antifungal assay (micro liquid-based dilution); format: cell-based; settings: Nannizzia gypsea, read-out: Antifungal Activities, MIC80
# S. aureus strain Newman = experiment: IC50 determination of inhibition of staphyloxanthin synthesis; format: cell-based; settings: Staphylococcus aureus
# Description: as §1, §2, §3
# S. aureus was selected for IC50 determination with respect to activity of inhibiting staphyloxanthin synthesis. […]
# CYP enzyme subtype 3A4M = CYP enzyme subtype 3A4M (Homo sapiens, UniProt P08684); experiment: Inhibition assay on hepatic CYP450 enzyme; format: in vitro ADME; settings: CYP 3A4M; read-out: Half inhibitory concentration (IC50)
# Trichophyton rubrum = experiment: In vitro antifungal assay (micro liquid-based dilution); format: cell-based; settings: read-out: Antifungal Activities, MIC80
# CYP enzyme subtype 2C8 = CYP enzyme subtype 2C8 (Homo sapiens, UniProt P10632); experiment: Inhibition assay on hepatic CYP450 enzyme
# CYP enzyme subtype 2C9 = CYP enzyme subtype 2C9 (Homo sapiens, UniProt P11712); experiment: Inhibition assay on hepatic CYP450 enzyme; format: in vitro ADME; settings: CYP 2C9; read-out: Half inhibitory concentration (IC50)
# Sequence of CYP enzyme subtype 2C9 (P11712 whole entry): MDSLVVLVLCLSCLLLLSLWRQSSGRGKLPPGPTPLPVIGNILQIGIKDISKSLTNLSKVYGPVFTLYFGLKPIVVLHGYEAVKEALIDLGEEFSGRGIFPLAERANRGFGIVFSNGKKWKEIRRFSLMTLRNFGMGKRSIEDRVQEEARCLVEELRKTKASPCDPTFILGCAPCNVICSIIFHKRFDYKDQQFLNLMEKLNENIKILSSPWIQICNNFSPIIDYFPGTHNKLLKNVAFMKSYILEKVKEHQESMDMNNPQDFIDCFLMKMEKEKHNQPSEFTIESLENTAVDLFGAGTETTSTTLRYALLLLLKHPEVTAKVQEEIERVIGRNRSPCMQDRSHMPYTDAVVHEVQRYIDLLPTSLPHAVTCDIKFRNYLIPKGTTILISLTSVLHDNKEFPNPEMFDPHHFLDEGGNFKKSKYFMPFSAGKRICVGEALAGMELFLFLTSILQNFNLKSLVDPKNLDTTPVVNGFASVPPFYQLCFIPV
# Sequence of CYP enzyme subtype 2C8 (P10632 whole entry): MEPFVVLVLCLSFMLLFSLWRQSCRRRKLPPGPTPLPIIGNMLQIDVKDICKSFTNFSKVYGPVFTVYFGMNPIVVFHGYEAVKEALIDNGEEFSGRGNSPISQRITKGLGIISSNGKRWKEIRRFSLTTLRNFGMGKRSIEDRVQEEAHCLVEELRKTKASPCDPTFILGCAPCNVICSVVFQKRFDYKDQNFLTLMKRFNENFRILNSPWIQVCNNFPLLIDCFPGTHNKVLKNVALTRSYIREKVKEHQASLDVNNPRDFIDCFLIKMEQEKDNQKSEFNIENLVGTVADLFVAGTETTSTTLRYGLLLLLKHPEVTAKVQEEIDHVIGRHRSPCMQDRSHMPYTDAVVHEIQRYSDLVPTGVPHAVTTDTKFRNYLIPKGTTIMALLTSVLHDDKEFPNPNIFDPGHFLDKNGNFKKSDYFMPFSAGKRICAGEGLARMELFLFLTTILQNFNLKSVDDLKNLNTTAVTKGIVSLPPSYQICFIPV
# Sequence of CYP enzyme subtype 1A2 (P05177 whole entry): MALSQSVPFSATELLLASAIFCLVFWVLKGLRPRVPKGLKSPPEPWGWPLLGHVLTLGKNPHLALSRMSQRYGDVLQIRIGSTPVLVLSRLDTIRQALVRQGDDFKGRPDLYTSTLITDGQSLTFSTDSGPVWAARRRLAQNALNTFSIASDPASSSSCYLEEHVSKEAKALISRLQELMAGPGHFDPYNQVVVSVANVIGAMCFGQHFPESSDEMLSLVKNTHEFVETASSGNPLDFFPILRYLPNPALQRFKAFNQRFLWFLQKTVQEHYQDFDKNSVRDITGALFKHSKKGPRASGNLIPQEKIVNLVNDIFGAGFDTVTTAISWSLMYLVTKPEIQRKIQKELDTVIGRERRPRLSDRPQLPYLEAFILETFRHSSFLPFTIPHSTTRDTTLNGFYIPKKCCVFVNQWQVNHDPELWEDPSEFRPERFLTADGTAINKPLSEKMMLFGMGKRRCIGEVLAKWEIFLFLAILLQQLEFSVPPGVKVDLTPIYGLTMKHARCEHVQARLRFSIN
# Sequence of CYP enzyme subtype 3A4M (P08684 whole entry): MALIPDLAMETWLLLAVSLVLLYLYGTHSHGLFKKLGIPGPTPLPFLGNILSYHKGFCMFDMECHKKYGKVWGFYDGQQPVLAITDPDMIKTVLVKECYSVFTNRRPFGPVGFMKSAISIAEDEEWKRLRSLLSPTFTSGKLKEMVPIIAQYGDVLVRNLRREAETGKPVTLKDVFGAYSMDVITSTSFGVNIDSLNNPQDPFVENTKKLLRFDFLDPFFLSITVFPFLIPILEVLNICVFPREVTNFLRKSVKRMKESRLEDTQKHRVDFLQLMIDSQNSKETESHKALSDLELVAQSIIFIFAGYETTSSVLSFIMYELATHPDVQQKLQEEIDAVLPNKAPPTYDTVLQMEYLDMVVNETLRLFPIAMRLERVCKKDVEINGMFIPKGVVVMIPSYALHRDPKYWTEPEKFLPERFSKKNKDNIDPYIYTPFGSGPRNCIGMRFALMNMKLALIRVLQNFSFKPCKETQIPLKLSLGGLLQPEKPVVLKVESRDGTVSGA
# Sequence of CYP enzyme subtype 2C19 (P33261 whole entry): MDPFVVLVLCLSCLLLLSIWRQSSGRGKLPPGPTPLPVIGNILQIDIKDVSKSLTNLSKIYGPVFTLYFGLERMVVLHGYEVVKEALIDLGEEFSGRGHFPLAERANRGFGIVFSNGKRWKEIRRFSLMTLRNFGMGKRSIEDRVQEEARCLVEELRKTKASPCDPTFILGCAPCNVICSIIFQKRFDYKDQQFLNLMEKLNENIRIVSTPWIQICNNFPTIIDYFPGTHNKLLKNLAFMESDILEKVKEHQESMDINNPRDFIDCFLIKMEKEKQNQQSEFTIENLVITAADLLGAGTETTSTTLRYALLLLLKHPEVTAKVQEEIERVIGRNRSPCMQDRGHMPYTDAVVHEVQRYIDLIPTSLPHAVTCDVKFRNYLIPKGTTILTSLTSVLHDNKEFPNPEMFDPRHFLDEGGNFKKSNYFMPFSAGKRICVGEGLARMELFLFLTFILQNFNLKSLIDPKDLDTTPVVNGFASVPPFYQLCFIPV
# Sequence of CYP enzyme subtype 2D6 (P10635 whole entry): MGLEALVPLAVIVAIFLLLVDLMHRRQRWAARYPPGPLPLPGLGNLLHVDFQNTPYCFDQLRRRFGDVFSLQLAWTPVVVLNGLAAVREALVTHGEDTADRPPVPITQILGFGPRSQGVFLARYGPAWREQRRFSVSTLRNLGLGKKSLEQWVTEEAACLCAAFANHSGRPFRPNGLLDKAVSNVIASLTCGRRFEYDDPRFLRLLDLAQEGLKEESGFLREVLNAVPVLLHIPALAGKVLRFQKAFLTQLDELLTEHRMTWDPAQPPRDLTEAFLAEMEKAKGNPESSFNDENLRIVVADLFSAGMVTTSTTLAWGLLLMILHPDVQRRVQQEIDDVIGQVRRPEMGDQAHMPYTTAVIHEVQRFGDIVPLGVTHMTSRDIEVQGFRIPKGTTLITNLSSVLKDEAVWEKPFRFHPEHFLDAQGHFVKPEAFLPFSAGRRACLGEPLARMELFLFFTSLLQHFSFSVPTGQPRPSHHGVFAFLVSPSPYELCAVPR
smiles,measurement,setting,value
"CN(C/C=C/c1ccc(-c2ccccc2)cc1)Cc1coc2ccccc12 [Compound IA-25, (E)-N-methyl-N-[(benzofuran-3-yl)methylene]-3-(4-phenylphenyl)-prop-2-en-1-amine]",abnormality in the dissected organs,[1],there was not any abnormality in the dissected organs
same,death or poor behavior events,[1],did not result in any death or poor behavior events in the rats
same,half-life,in vitro,0.833 to 2 h
same,IC50,CYP enzyme subtype 2D6,3200 nM
same,HPLC absorption peaks of carotenoid extract,[2],absorption peaks at the original peak position disappeared again
same,IC50,CYP enzyme subtype 1A2,5690 nM
same,bacterial survival rate after human blood killing,S. aureus,less than 3%
same,MIC80,Tinea barbae,> 64 µg/mL
same,IC50,LRSA202 (CHN),1.6 ± 0.2 nM
same,IC50,HS663 (CHN),0.02 ± 0.01 nM
same,IC50,NRS70 (JPN),1.7 ± 0.01 nM
same,IC50,NRS100 (USA),1.2 ± 0.1 nM
same,IC50,LRSA56 (CHN),1.8 ± 0.1 nM
same,IC50,NRS108 (FRA),5.6 ± 0.02 nM
same,IC50,LRSA205 (CHN),10.5 ± 0.4 nM
same,IC50,NRS271 (SPA),0.4 ± 0.01 nM
same,IC50,NF65Y (CHN),1 ± 0.02 nM
same,IC50,XN108 (CHN),0.2 ± 0.04 nM
same,IC50,CYP enzyme subtype 2C19,> 10000 nM
same,IC50,"USA300 LAC; USA300, read-out: IC50, staphyloxanthin synthesis in drug-resistant strain",7.9 ± 1.2 nM
same,IC50,"USA300 LAC; USA300, read-out: Inhibitory activity on staphyloxanthin IC50",7.9 ± 0.2 nM
same,IC50,"Mu50; read-out: IC50, staphyloxanthin synthesis in drug-resistant strain",0.8 ± 1.4 nM
same,IC50,Mu50; read-out: Inhibitory activity on staphyloxanthin IC50,0.8 ± 0.01 nM
same,IC50,"USA400 MW2; USA400, read-out: IC50, staphyloxanthin synthesis in drug-resistant strain",1.9 ± 0.5 nM
same,IC50,"USA400 MW2; USA400, read-out: Inhibitory activity on staphyloxanthin IC50",1.9 ± 1.2 nM
same,MIC80,Microsporum gypseum,32 µg/mL
same,IC50,"S. aureus strain Newman; Newman, Table 3, read-out: Inhibitory activity on staphyloxanthin IC50",2 ± 0.1 nM
same,IC50,"S. aureus strain Newman; S. aureus strain Newman, Table 1, read-out: IC50, inhibitory activity on staphyloxanthin synthesis",2 ± 0.1 nM
same,IC50,CYP enzyme subtype 3A4M,> 10000 nM
same,MIC80,Trichophyton rubrum,64 µg/mL
same,IC50,CYP enzyme subtype 2C8,> 10000 nM
same,IC50,CYP enzyme subtype 2C9,> 10000 nM
